The source of these data is ChEMBL document CHEMBL1138676, “Liver-selective glucocorticoid antagonists: a novel treatment for type 2 diabetes” (J Med Chem, 2004).

By Ki is commonly meant the dissociation constant of the complex between target and ligand, obtained from inhibition or displacement. One may read the Inhibition as the drop in the measured response relative to a control, in per cent. As usually defined, the inhibition is the share of the control response that was lost under treatment.

For one experiment, the target named is T1, Glucocorticoid receptor (Homo sapiens, UniProt P04150).
T1 sequence (P04150 whole entry): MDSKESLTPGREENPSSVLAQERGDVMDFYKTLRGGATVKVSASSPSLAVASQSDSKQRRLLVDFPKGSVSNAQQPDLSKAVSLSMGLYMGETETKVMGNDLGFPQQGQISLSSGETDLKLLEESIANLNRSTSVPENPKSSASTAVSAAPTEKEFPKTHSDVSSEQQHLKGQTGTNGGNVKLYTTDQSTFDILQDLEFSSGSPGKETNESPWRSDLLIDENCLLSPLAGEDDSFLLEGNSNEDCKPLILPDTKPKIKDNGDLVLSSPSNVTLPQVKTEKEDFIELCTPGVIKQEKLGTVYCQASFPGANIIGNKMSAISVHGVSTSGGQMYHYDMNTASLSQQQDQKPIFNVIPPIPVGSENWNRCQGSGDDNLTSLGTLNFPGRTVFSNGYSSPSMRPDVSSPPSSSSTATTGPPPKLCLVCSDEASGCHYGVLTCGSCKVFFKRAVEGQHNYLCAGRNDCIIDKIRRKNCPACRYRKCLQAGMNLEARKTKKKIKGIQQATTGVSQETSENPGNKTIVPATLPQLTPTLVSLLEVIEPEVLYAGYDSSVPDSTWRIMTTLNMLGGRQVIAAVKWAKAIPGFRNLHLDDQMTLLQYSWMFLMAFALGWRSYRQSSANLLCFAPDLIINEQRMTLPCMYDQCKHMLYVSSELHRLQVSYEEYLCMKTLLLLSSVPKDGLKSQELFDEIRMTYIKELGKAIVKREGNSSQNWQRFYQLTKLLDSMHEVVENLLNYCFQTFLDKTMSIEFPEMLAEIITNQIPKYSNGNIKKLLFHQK
Briefly: Inhibition of glucocorticoid receptor dependent alkaline phosphatase activity. The format is functional.

The nature of experiment [1]: Inhibitory activity against rat lymphocytes. Also noted: concentration or dose not given beside the values.
For experiment [2], the target named is Glucocorticoid receptor (Rattus norvegicus) (UniProt P06536). Briefly: Inhibition of glucocorticoid receptor mediated tyrosine aminotransferase activity. The conditions noted are these: concentration not given here. Also noted: concentration or dose not given beside the values.
Chain of Glucocorticoid receptor (Rattus norvegicus) (P06536 whole entry, looked up): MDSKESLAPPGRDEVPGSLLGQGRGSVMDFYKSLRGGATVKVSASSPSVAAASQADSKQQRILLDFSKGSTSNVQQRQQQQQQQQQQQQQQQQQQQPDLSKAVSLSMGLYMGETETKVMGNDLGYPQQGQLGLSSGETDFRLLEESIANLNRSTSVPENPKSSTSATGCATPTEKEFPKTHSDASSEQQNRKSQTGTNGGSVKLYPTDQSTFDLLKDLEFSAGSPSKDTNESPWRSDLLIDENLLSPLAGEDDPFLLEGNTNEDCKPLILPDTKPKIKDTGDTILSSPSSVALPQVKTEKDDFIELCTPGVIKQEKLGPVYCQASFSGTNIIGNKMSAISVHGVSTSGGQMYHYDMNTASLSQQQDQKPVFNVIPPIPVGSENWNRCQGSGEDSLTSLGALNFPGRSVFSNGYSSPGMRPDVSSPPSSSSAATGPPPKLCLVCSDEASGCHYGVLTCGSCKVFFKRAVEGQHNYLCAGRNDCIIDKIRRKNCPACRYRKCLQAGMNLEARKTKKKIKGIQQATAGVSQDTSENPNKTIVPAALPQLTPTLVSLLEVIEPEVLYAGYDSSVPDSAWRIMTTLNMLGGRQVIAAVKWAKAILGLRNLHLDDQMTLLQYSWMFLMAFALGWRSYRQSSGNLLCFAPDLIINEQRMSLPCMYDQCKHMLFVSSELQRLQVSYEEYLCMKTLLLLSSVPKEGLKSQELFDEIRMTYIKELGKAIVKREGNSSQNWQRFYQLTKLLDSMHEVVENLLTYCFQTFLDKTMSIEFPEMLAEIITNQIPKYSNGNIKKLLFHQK
The nature of experiment [3]: Inhibitory activity of the Compound against rat lymphocytes.

On to `C#C[C@]1(O)CC[C@H]2[C@@H]3CCC4=CC(=O)CCC4=C3[C@@H](c3ccc(N(C)CCCC(=O)N(C)C4CC[C@@]5(C)[C@@H](C4)C[C@@H](O)[C@@H]4[C@@H]5C[C@H](O)[C@]5(C)[C@@H]([C@H](C)CCC(=O)O)CC[C@@H]45)cc3)C[C@@]21C` (stereo not given in full), for which, at Glucocorticoid receptor, the affinity, expressed as Ki, was 1.2 nM. The Inhibition in experiment [1] was found to be 4%. The compound also gave an inhibition in experiment [2] of 11%.

With `C#C[C@]1(O)CC[C@H]2[C@@H]3CCC4=CC(=O)CCC4=C3[C@@H](c3ccc(N(C)C(=O)CNC(=O)OC4CC[C@@]5(C)[C@@H](C4)C[C@@H](O)[C@@H]4[C@@H]5C[C@H](O)[C@]5(C)[C@@H]([C@H](C)CCC(=O)O)CC[C@@H]45)cc3)C[C@@]21C` (stereo not given in full), the Ki on Glucocorticoid receptor worked out at 50 nM.

With `C#C[C@]1(O)CC[C@H]2[C@@H]3CCC4=CC(=O)CCC4=C3[C@@H](c3ccc(N(C)CCOC4CC[C@@]5(C)[C@@H](C4)C[C@@H](O)[C@@H]4[C@@H]5C[C@H](O)[C@]5(C)[C@@H]([C@H](C)CCC(=O)O)CC[C@@H]45)cc3)C[C@@]21C` (stereo in doubt; form 2), the Ki at Glucocorticoid receptor was 1.1 nM. Besides, the Inhibition in experiment [1] is 9%.

Take `C#C[C@]1(O)CC[C@H]2[C@@H]3CCC4=CC(=O)CCC4=C3[C@@H](c3ccc(N(C)CCOC4CC[C@@]5(C)[C@@H](C4)C[C@@H](O)[C@@H]4[C@@H]5C[C@H](O)[C@]5(C)[C@@H]([C@H](C)CCC(=O)NCCS(=O)(=O)O)CC[C@@H]45)cc3)C[C@@]21C` (stereo not given in full): on Glucocorticoid receptor, the affinity corresponds to a Ki of 37 nM.

Take `C#C[C@]1(O)CC[C@H]2[C@@H]3CCC4=CC(=O)CCC4=C3[C@@H](c3ccc(N(C)CCOC4CC[C@@]5(C)[C@@H](C4)C[C@@H](O)[C@@H]4[C@@H]5C[C@H](O)[C@]5(C)[C@@H]([C@H](C)CCC(=O)NCC(=O)O)CC[C@@H]45)cc3)C[C@@]21C` (stereo not given in full): the affinity on Glucocorticoid receptor, expressed as Ki, was 8.6 nM.

`C#C[C@]1(O)CC[C@H]2[C@@H]3CCC4=CC(=O)CCC4=C3[C@@H](c3ccc(N(C)C(=O)CNC(=O)O[C@@H]4C[C@@H]5CC(O)CC[C@]5(C)[C@H]5C[C@H](O)[C@]6(C)[C@@H]([C@H](C)CCC(=O)O)CC[C@H]6[C@H]45)cc3)C[C@@]21C` (stereo not given in full) came in with a Ki at Glucocorticoid receptor of 49 nM.

At Glucocorticoid receptor, `C#C[C@]1(O)CC[C@H]2[C@@H]3CCC4=CC(=O)CCC4=C3[C@@H](c3ccc(N(C)CCCOC4CC[C@@]5(C)[C@@H](C4)C[C@@H](O)[C@@H]4[C@@H]5C[C@H](O)[C@]5(C)[C@@H]([C@H](C)CCC(=O)O)CC[C@@H]45)cc3)C[C@@]21C` (stereo not given in full) returned a Ki of 1.1 nM. The Inhibition in experiment [1] was -5%. The inhibition in experiment [2] turned out to be 64%.

On Glucocorticoid receptor, `C#C[C@]1(O)CC[C@H]2[C@@H]3CCC4=CC(=O)CCC4=C3[C@@H](c3ccc(N(C)C(=O)CC[C@H](NC(=O)CC[C@@H](C)[C@H]4CC[C@H]5[C@@H]6[C@H](O)C[C@@H]7C[C@H](O)CC[C@]7(C)[C@H]6C[C@H](O)[C@]45C)C(=O)O)cc3)C[C@@]21C` registered a Ki of 250 nM.

With `C#C[C@]1(O)CC[C@H]2[C@@H]3CCC4=CC(=O)CCC4=C3[C@@H](c3ccc(N(C)CCNC(=O)OC4CC[C@@]5(C)[C@@H](C4)C[C@@H](O)[C@@H]4[C@@H]5C[C@H](O)[C@]5(C)[C@@H]([C@H](C)CCC(=O)O)CC[C@@H]45)cc3)C[C@@]21C` (stereo not given in full), at Glucocorticoid receptor, the Ki was 1.4 nM. Also, the Inhibition in experiment [3] is on record as 14%.

`C#C[C@]1(O)CC[C@H]2[C@@H]3CCC4=CC(=O)CCC4=C3[C@@H](c3ccc(N(C)CCC[C@H]4[C@H](O)CC[C@@]5(C)[C@@H]4C[C@@H](O)[C@@H]4[C@@H]5C[C@H](O)[C@]5(C)[C@@H]([C@H](C)CCC(=O)O)CC[C@@H]45)cc3)C[C@@]21C`: on Glucocorticoid receptor, the Ki worked out at 52 nM.

In the case of `C#C[C@]1(O)CC[C@H]2[C@@H]3CCC4=CC(=O)CCC4=C3[C@@H](c3ccc(N(C)CCCS(=O)(=O)N(C)C4CC[C@@]5(C)[C@@H](C4)C[C@@H](O)[C@@H]4[C@@H]5C[C@H](O)[C@]5(C)[C@@H]([C@H](C)CCC(=O)O)CC[C@@H]45)cc3)C[C@@]21C` (stereo not given in full), the Ki at Glucocorticoid receptor stood at 15 nM. The Inhibition in experiment [1] came out at 9%.

Compound `C#C[C@]1(O)CC[C@H]2[C@@H]3CCC4=CC(=O)CCC4=C3[C@@H](c3ccc(N(C)C(C)=O)cc3)C[C@@]21C` showed a Ki on Glucocorticoid receptor of 1.4 nM.

Regarding `C#C[C@]1(O)CC[C@H]2[C@@H]3CCC4=CC(=O)CCC4=C3[C@@H](c3ccc(N(C)CCOCCO[C@H]4CC[C@@]5(C)[C@@H](C4)C[C@@H](O)[C@@H]4[C@@H]5C[C@H](O)[C@]5(C)[C@@H]([C@H](C)CCC(=O)O)CC[C@@H]45)cc3)C[C@@]21C`, the inhibitory constant (Ki) on Glucocorticoid receptor is 1.1 nM. In experiment [1], the Inhibition came to 43%. For the same compound, in experiment [2], the inhibition is 60%.

Regarding `C#C[C@]1(O)CC[C@H]2[C@@H]3CCC4=CC(=O)CCC4=C3[C@@H](c3ccc(N(C)CCOC4CC[C@@]5(C)[C@@H](C4)C[C@@H](O)[C@@H]4[C@@H]5C[C@H](O)[C@]5(C)[C@@H]([C@H](C)CCC(=O)O)CC[C@@H]45)cc3)C[C@@]21C` (stereo in doubt; form 1), the affinity at Glucocorticoid receptor, expressed as Ki, was 11 nM. Further, the Inhibition in experiment [1] is given as -14%.

On Glucocorticoid receptor, `C#C[C@]1(O)CC[C@H]2[C@@H]3CCC4=CC(=O)CCC4=C3[C@@H](c3ccc(N(C)CCNC(=O)N(C)C4CC[C@@]5(C)[C@@H](C4)C[C@@H](O)[C@@H]4[C@@H]5C[C@H](O)[C@]5(C)[C@@H]([C@H](C)CCC(=O)O)CC[C@@H]45)cc3)C[C@@]21C` (stereo not given in full) had a Ki of 15 nM.
